Results on two molecules are retold here after ChEMBL document CHEMBL1139472, “Synthesis of N-{4-[(2,4-diamino-5-methyl-4,7-dihydro-3H-pyrrolo[2,3-d]pyrimidin-6-yl)thio]benzoyl}-L-glutamic acid and N-{4-[(2-amino-4-oxo-5-methyl-4,7-dihydro-3H-pyrrolo[2,3-d]pyrimidin-6-yl)thio]benzoyl}-L-glutamic acid as dual inhibitors of dihydrofolate reductase and thymidylate synthase and …” (J Med Chem, 2005).

Calls of active or inactive are those of the source. No cut-off for these calls is given here.

For assay [1], the target named is T1, Folylpolyglutamate synthase, mitochondrial (Homo sapiens) (UniProt Q05932).
T1 sequence (whole entry): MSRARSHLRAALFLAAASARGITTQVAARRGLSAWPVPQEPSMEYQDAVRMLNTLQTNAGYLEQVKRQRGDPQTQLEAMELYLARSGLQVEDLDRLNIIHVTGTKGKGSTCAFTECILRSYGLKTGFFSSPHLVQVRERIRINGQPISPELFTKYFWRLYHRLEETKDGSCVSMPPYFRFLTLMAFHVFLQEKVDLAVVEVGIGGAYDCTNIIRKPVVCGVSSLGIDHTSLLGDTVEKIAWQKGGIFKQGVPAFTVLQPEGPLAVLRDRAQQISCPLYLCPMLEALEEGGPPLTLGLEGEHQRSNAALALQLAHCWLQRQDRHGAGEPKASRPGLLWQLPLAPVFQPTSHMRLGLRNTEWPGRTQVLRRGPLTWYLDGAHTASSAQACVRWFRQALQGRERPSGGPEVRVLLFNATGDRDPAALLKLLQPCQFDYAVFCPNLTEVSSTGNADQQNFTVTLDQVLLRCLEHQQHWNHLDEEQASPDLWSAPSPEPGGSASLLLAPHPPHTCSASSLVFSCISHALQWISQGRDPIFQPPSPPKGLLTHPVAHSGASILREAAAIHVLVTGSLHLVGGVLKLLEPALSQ
Description: Ratio of Vmax relative to […] to Km of human recombinant cytosolic FPGS.

For a further assay, the system named is CCRF-CEM. Description: Growth inhibition of human CCRF-CEM cells at 20 uM. It is filed as functional, cell-based.

For `Cc1c(Sc2ccc(C(=O)N[C@@H](CCC(=O)O)C(=O)O)cc2)[nH]c2nc(N)[nH]c(=O)c12`, the Ratio in assay [1] came to 0.06. For the same molecule, in the assay with CCRF-CEM, the outcome was inactive. As to `Nc1nc(N)c2nc(CNc3ccc(C(=O)N[C@@H](CCC(=O)O)C(=O)O)cc3)cnc2n1`, the Ratio in assay [1] was determined as 0.17.
